25 compounds from US9150569B2, “Nitrogen-containing heterocyclic compound having inhibitory effect on production of kynurenine” (KYOWA HAKKO KIRIN CO., LTD., priority 2010, dated 2015) can be followed below.

The assay relates to production of kynurenine in KATO-III cells. The assay is described as follows: Inhibitory activity on the production of kynurenine (IFN-γ-treated KATO-III cells, kynurenine in the culture medium quantified by absorbance at 480 nm). Type of assay: cell-based. As to conditions: test compound at 10 μmol/L, human gastric cancer cell line KATO-III, 96 hours, read-out: inhibition rate (production of kynurenine). The procedure:
This assay was performed by a modification of the method described in J. Biol. Chem., vol. 263, pp. 2041-2048 (1988). For culture of the human gastric cancer cell line KATO-III, RPMI 1640 (GIBCO, 11875) supplemented with 10 volt FBS (GIBCO, 10091-148, lot. 665285) was used. One μL of a test substance in a DMSO solution was diluted with 199 μL of the culture medium and placed in wells of a 384-well plate (10 μL/well). Next, IFN-γ (Sigma, 1-3265) was added to the culture medium to a concentration of 31.25 ng/mL, and KATO-III cells were suspended at 50,000 cells/mL in the culture medium. Forty μL of the suspension was added to each well (2,000 cells/well) and incubated under a 5% CO2 atmosphere at 37° C. for 96 hours. The final concentration of DMSO was limited to 0.1 volt or less so that DMSO itself may not affect the kynurenine concentration measured by this assay. After the incubation, 10 μL of a 30 w/vt aqueous trichloroacetic acid solution was added to each well, and incubation was performed at 65° C. for 30 minutes. The plate was centrifuged at 2,500×g for 5 minutes and 15μL of the supernatant in each well was transferred into another 384-well plate. To the transferred supernatant, 15 μL of a 2 w/vt solution of p-dimethylaminobenzaldehyde in acetic acid was added, incubation was performed at 65° C. for 20 minutes and the absorbance was measured at 480 nm.
Sample: the absorbance value of the well to which a DMSO solution containing a test substance was added and in which the cells were treated with IFN-γ.
Blank: the absorbance value of the well to which DMSO not containing a test substance was added and in which the cells were treated with IFN-γ.
Control: the absorbance value of the well to which DMSO not containing a test substance was added and in which the cells were not treated with IFN-γ.
In this assay, expression of IDO in KATO-III cells is induced by IFN-γ treatment and kynurenine in the culture medium is quantified. The kynurenine concentration in a culture medium is known to increase in proportion to the enzymatic activity of intracellular IDO (for example, J. Biol. Chem., vol. 263, pp. 2041-2048 ([…])). […] The production of kynurenine is known to be inhibited by IDO inhibitors (for example, J. Clin. Invest., vol. 117, No. 5, pp. 1147-1154 […]), and thus it is speculated that Compounds (I) also have an inhibitory effect on IDO.

Structures are written as SMILES. Where only a bound is given, the exact number is not on record here.

Broadly, the inhibition is the relative decrease from the control value, in per cent. In the case of `CCCS(=O)(=O)Nc1nc2ccccc2nc1OC(c1ccnc(N)c1)C(F)(F)F` (stereo not shown) [Compound 45, N-(3-(1-(2-aminopyridin-4-yl)-2,2,2-trifluoroethoxy)quinoxalin-2-yl)propane-1-sulfonamide], the inhibition at 10 µM was ≥ 80%. The value for `CCCCS(=O)(=O)Nc1nc2ccccc2nc1OC(c1ccncc1)C(F)(F)F` (stereo not shown) [Compound 46, N-(3-(2,2,2-trifluoro-1-(pyridin-4-yl)ethoxy)quinoxalin-2-yl)butane-1-sulfonamide] was ≥ 80%. The figure for `CCCCS(=O)(=O)Nc1nc2ccccc2nc1OC(c1cc[n+]([O-])cc1)C(F)(F)F` (stereo not shown) [Compound 47, 4-(1-(3-(butylsulfonamido)quinoxalin-2-yloxy)-2,2,2-trifluoroethyl)pyridine 1-oxide] is ≥ 80%; for `CCCS(=O)(=O)Nc1nc2ccccc2nc1OC(c1ccc2c(c1)OCCO2)C(F)(F)F` (stereo not shown) [Compound 48, N-(3-(1-(2,3-dihydrobenzo[b][1,4]dioxin-6-yl)-2,2,2-trifluoroethoxy)quinoxalin-2-yl)propane-1-sulfonamide] it is ≥ 80%; for `CCCS(=O)(=O)Nc1nc2ccccc2nc1OC(c1ccnc(N(C)C(C)=O)c1)C(F)(F)F` (stereo not shown) [Compound 49, N-methyl-N-(4-(2,2,2-trifluoro-1-(3-(propylsulfonamido)quinoxalin-2-yloxy)ethyl)pyridin-2-yl)acetamide] it is ≥ 80%. In the case of `O=S(=O)(CC1CC1)Nc1nc2ccccc2nc1OC(c1ccncc1)C(F)(F)F` (stereo not shown) [Compound 50, 1-cyclopropyl-N-(3-(2,2,2-trifluoro-1-(pyridin-4-yl)ethoxy)quinoxalin-2-yl)methanesulfonamide], the inhibition at 10 µM is ≥ 80%. In the case of `CC(C)CS(=O)(=O)Nc1nc2ccccc2nc1OC(c1ccncc1)C(F)(F)F` (stereo not shown) [Compound 51, 2-methyl-N-(3-(2,2,2-trifluoro-1-(pyridin-4-yl)ethoxy)quinoxalin-2-yl)propane-1-sulfonamide], the inhibition at 10 µM is ≥ 80%.

For the compound `CCCCS(=O)(=O)Nc1nc2ccccc2nc1OC(c1ccnc(C#N)c1)C(F)(F)F` (stereo not shown) [Compound 52, N-(3-(1-(2-cyanopyridin-4-yl)-2,2,2-trifluoroethoxy)quinoxalin-2-yl)butane-1-sulfonamide], the inhibition at 10 µM was ≥ 80%. The value for `CCCS(=O)(=O)Nc1nc2ccccc2nc1OC(c1ccn2cc(C)nc2c1)C(F)(F)F` (stereo not shown) [Compound 53, N-(3-(2,2,2-trifluoro-1-(2-methylimidazo[1,2-a]pyridin-7-yl)ethoxy)quinoxalin-2-yl)propane-1-sulfonamide] was ≥ 80%. The figure for `CCCS(=O)(=O)Nc1nc2ccccc2nc1OC(c1ccnc(-n2ccnc2)c1)C(F)(F)F` (stereo not shown) [Compound 54, N-(3-(1-(2-(1H-imidazol-1-yl)pyridin-4-yl)-2,2,2-trifluoroethoxy)quinoxalin-2-yl)propane-1-sulfonamide] is ≥ 80%; for `CCCS(=O)(=O)Nc1nc2ccccc2nc1OC(c1cnc(SC)nc1)C(F)(F)F` (stereo not shown) [Compound 55, N-(3-(2,2,2-trifluoro-1-(2-(methylthio)pyrimidin-5-yl)ethoxy)quinoxalin-2-yl)propane-1-sulfonamide] it is ≥ 80%.

Regarding `CCCS(=O)(=O)Nc1nc2ccccc2nc1OC(c1ccc(-c2cnn(C)n2)nc1)C(F)(F)F` (stereo not shown) [Compound 64A, N-(3-(2,2,2-trifluoro-1-(6-(2-methyl-2H-1,2,3-triazol-4-yl)pyridin-3-yl)ethoxy)quinoxalin-2-yl)propane-1-sulfonamide], the inhibition at 10 µM was ≥ 80%.

For `CCCS(=O)(=O)Nc1nc2ccccc2nc1OC(c1ccc(-c2cnco2)nc1)C(F)(F)F` (stereo not shown) [Compound 65, N-(3-(2,2,2-trifluoro-1-(6-(oxazol-5-yl)pyridin-3-yl)ethoxy)quinoxalin-2-yl)propane-1-sulfonamide], the inhibition at 10 µM is ≥ 80%.

Turning to `CCCS(=O)(=O)Nc1nc2ccccc2nc1OC(c1ccc(-c2noc(C)n2)nc1)C(F)(F)F` (stereo not shown) [Compound 66, N-(3-(2,2,2-trifluoro-1-(6-(5-methyl-1,2,4-oxadiazol-3-yl)pyridin-3-yl)ethoxy)quinoxalin-2-yl)propane-1-sulfonamide], the inhibition at 10 µM is ≥ 80%. The value for `COCCS(=O)(=O)Nc1nc2ccccc2nc1OC(c1ccc(-c2ccnn2C)nc1)C(F)(F)F` (stereo not shown) [Compound 67, 2-methoxy-N-(3-(2,2,2-trifluoro-1-(6-(1-methyl-1H-pyrazol-5-yl)pyridin-3-yl)ethoxy)quinoxalin-2-yl)ethanesulfonamide] was ≥ 80%. The value for `COCCS(=O)(=O)Nc1nc2ccccc2nc1OC(c1ccc(-c2cnn(C)n2)nc1)C(F)(F)F` (stereo not shown) [Compound 68A, 2-methoxy-N-(3-(2,2,2-trifluoro-1-(6-(2-methyl-2H-1,2,3-triazol-4-yl)pyridin-3-yl)ethoxy)quinoxalin-2-yl)ethanesulfonamide] was ≥ 80%; that for `COCCS(=O)(=O)Nc1nc2ccccc2nc1OC(c1ccc(-n2ccnc2C)nc1)C(F)(F)F` (stereo not shown) [Compound 69, 2-methoxy-N-(3-(2,2,2-trifluoro-1-(6-(2-methyl-1H-imidazol-1-yl)pyridin-3-yl)ethoxy)quinoxalin-2-yl)ethanesulfonamide] was ≥ 80%; that for `CCCS(=O)(=O)Nc1nc2ccccc2nc1OC(c1cnc(C)n1C)C(F)(F)F` (stereo not shown) [Compound 70, N-(3-(1-(1,2-dimethyl-1H-imidazol-5-yl)-2,2,2-trifluoroethoxy)quinoxalin-2-yl)propane-1-sulfonamide] was ≥ 80%.

For the compound `CCCS(=O)(=O)Nc1nc2ccccc2nc1OC(c1cnc(C(C)=O)s1)C(F)(F)F` (stereo not shown) [Compound 71, N-(3-(1-(2-acetylthiazol-5-yl)-2,2,2-trifluoroethoxy)quinoxalin-2-yl)propane-1-sulfonamide], the inhibition at 10 µM is ≥ 80%.

`COCCS(=O)(=O)Nc1nc2ccccc2nc1OC(c1ccnc(C(C)=O)c1)C(F)(F)F` (stereo not shown) [Compound 72, N-(3-(1-(2-acetylpyridin-4-yl)-2,2,2-trifluoroethoxy)quinoxalin-2-yl)-2-methoxyethanesulfonamide]: the inhibition at 10 µM is ≥ 80%. Take `COCCS(=O)(=O)Nc1nc2ccccc2nc1OC(c1ccc(-c2cnco2)nc1)C(F)(F)F` (stereo not shown) [Compound 73, 2-methoxy-N-(3-(2,2,2-trifluoro-1-(6-(oxazol-5-yl)pyridin-3-yl)ethoxy)quinoxalin-2-yl)ethanesulfonamide]: the inhibition at 10 µM was ≥ 80%. `COCCS(=O)(=O)Nc1nc2ccccc2nc1OC(c1cnc(C(C)=O)s1)C(F)(F)F` (stereo not shown) [Compound 74, N-(3-(1-(2-acetylthiazol-5-yl)-2,2,2-trifluoroethoxy)quinoxalin-2-yl)-2-methoxyethanesulfonamide]: the inhibition at 10 µM is ≥ 80%. With `CCCS(=O)(=O)Nc1nc2cc(I)ccc2nc1OC(c1cccnc1)C(F)(F)F` (stereo not shown) [Compound 77, N-(7-iodo-3-(2,2,2-trifluoro-1-(pyridin-3-yl)ethoxy)quinoxalin-2-yl)propane-1-sulfonamide], the inhibition at 10 µM was ≥ 80%.

Turning to `CCCS(=O)(=O)Nc1nc2cc(C#N)ccc2nc1OC(c1cccnc1)C(F)(F)F` (stereo not shown) [Compound 78, N-(7-cyano-3-(2,2,2-trifluoro-1-(pyridin-3-yl)ethoxy)quinoxalin-2-yl)propane-1-sulfonamide], the inhibition at 10 µM was ≥ 80%. The figure for `C#Cc1ccc2nc(OC(c3cccnc3)C(F)(F)F)c(NS(=O)(=O)CCC)nc2c1` (stereo not shown) [Compound 79, N-(7-ethynyl-3-(2,2,2-trifluoro-1-(pyridin-3-yl)ethoxy)quinoxalin-2-yl)propane-1-sulfonamide] is ≥ 80%.
